Source: patent US10106542B2, “Substituted 6,7-dihydropyrazolo[1,5-a]pyrazines as negative allosteric modulators of mGluR2 receptors” (Janssen Pharmaceutica NV, priority 2013, dated 2018)

Legend:
human mGlu2 receptor = target: T1, human mGlu2 receptor (Homo sapiens, UniProt Q14416); test: [35S]GTPγS binding assay (mGluR2 negative allosteric modulation); format: biochemical; conditions: for IC50: membranes from CHO cells transfected with human mGlu2 receptor, glutamate 60 μM, pIC50 = −log IC50 (M), read-out: GTPγS - hmGluR2 anGT pIC50 (converted); for Emax: read-out: GTPγS - hmGluR2 anGT Emax
T1 construct: expressed in transfected cells; host or cells: CHO cells (membrane preparation)
T1 sequence (Q14416 19-872): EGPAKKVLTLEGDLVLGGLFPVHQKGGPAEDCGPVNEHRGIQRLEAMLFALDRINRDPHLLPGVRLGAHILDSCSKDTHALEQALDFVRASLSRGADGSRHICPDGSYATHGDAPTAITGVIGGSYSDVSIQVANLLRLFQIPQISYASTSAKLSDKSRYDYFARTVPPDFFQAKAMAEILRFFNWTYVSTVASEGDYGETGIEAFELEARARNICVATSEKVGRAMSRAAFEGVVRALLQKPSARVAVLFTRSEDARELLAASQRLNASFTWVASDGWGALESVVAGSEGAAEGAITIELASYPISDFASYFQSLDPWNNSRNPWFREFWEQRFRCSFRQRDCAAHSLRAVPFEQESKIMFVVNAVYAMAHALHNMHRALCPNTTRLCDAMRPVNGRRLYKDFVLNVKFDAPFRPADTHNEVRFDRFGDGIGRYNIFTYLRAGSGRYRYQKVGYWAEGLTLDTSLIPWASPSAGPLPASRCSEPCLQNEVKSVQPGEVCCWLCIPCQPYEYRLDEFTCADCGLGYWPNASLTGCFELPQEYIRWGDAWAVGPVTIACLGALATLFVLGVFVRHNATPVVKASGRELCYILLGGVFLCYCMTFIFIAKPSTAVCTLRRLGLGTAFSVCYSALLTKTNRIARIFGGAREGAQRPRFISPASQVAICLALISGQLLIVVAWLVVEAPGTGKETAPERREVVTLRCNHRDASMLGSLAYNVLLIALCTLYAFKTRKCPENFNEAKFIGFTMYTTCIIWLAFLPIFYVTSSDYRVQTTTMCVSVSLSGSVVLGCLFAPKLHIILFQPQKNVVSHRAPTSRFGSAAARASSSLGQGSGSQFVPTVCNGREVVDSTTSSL
Method in brief: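 Membranes from butyrate-stimulated CHO cells expressing human mGlu2; 7 μg protein in HEPES pH 7.4, 100 mM NaCl, 3 mM MgCl2, 10 μM GDP, 10 μg/ml saponin. Compound tested against EC80-equivalent glutamate; 0.1 nM [35S]GTPγS, 30 min, 30 °C; filtration, scintillation counting. Data as % of control glutamate response.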

[1] = relative maximal effect: maximal % inhibition relative to the control glutamate response

Row | IC50 (human mGlu2 receptor) [M] | Emax (human mGlu2 receptor; [1]) [%] | melting point | GTPγS - hmGluR2 anGT Emax (human mGlu2 receptor; [1]) [%] | Compound
1 | 6.76e-09 | 109 | 107.87 °C (dec.) | – | COc1cc(-c2cnn3c2C(=O)N(c2ccc(C(F)(F)F)c(OC)n2)C[C@@H]3C)ccn1 [compound 240]
2 | 6.31e-06 | 85 | > 300 °C | – | C[C@H]1CN(c2ccc(C(F)(F)F)cc2)C(=O)c2c(-c3ccc(N4CCNCC4)nc3)cnn21 [compound 176, (7S)-7-Methyl-3-(6-piperazin-1-yl-3-pyridyl)-5-[4-(trifluoromethyl)phenyl]-6,7-dihydropyrazolo[1,5-a]pyrazin-4-one]
3 | 4.47e-06 | 97 | 255.5 °C | – | Cc1cc(-c2cnn3c2C(=O)N(c2ccc(C(F)(F)F)cc2)CC3C(C)O)ccn1 (stereo not drawn) [compound 217]
4 | 1.35e-08 | 104 | 71.5 °C | – | Cc1cc(-c2cnn3c2C(=O)N(c2cc(Cl)cc(Cl)c2)C[C@@H]3C)ccn1 [compound 159]
5 | 5.5e-09 | 107 | 170.3 °C | – | C[C@H]1CN(c2ccc(Cl)c(Cl)c2)C(=O)c2c(-c3ccnc(F)c3)cnn21 [compound 164]
6 | 1.35e-06 | 102 | 220.8 °C | – | C[C@H]1CN(c2ccc(C(F)(F)F)cc2)C(=O)c2c(-c3ccnc(N4CCNCC4)c3)cnn21.Cl [compound 175, (7S)-7-Methyl-3-(2-piperazin-1-yl-4-pyridyl)-5-[4-(trifluoromethyl)phenyl]-6,7-dihydropyrazolo[1,5-a]pyrazin-4-one hydrochloride salt]
7 | 1e-08 | 105 | 127.5 °C | – | Cc1cc(-c2cnn3c2C(=O)N(c2ccc(C(F)F)c(Cl)c2)C[C@@H]3C)ccn1 [compound 174]
8 | 2.51e-08 | 106 | 48.2 °C | – | COCc1cc(N2C[C@H](C)n3ncc(-c4ccnc(C)c4)c3C2=O)ccc1C(F)(F)F [compound 158]
9 | 5.25e-08 | 106 | 173.08 °C | – | CC(C)Nc1cc(-c2cnn3c2C(=O)N(c2ccc(C(F)(F)F)cc2)C[C@@H]3C)ccn1 [compound 266]
10 | 1.07e-07 | 106 | 129.5 °C | – | Cc1cc(-c2cnn3c2C(=O)N(c2ccc(OCC(F)(F)F)cc2)C[C@@H]3C)ccn1 [compound 160]
11 | 1.02e-08 | 102 | 179.2 °C | – | CCOc1nc(N2C[C@H](C)n3ncc(-c4cc(C)nc(C)c4)c3C2=O)ccc1C(F)(F)F [compound 205]
12 | 4.07e-09 | 108 | 161.4 °C | – | Cc1cc(-c2cnn3c2C(=O)N(c2ccc(C(F)(F)F)c(Cl)n2)C[C@@H]3C)ccn1 [compound 188, (7S)-5-[6-chloro-5-(trifluoromethyl)-2-pyridyl]-7-methyl-3-(2-methyl-4-pyridyl)-6,7-dihydropyrazolo[1,5-a]pyrazin-4-one]
13 | 1.07e-06 | 109 | 60.7 °C | – | CCOc1ccc(N2C[C@H](C)n3ncc(-c4ccnc(C)c4)c3C2=O)nc1F [compound 191]
14 | 4.68e-07 | 103 | > 300 °C | – | COc1ccc(-c2cnn3c2C(=O)N(c2ccc(C(F)(F)F)cc2)C[C@@H]3C)cn1 [compound 150]
15 | 1.51e-07 | 104 | 146.6 °C | – | C[C@H]1CN(c2ccc(C(F)(F)F)cn2)C(=O)c2c(-c3ccnc(F)c3)cnn21 [compound 197]
16 | 2.34e-08 | 105 | 125.66 °C (dec.) | – | CNc1cc(-c2cnn3c2C(=O)N(c2ccc(C(F)(F)F)cn2)C[C@@H]3C)ccn1 [compound 210]

The remaining lines, values behind:

Row | Compound | IC50 (human mGlu2 receptor) [M] | Emax (human mGlu2 receptor; [1]) [%] | melting point | GTPγS - hmGluR2 anGT Emax (human mGlu2 receptor; [1]) [%]
17 | Cc1cc(-c2cnn3c2C(=O)N(c2ccc(C(F)(F)F)c(F)c2)CC3)ccn1 [compound 39] | 1.62e-06 | 100 | 185.2 °C | –
18 | C[C@H]1CN(c2ccc(C(F)(F)F)c(Cl)c2)C(=O)c2c(-c3ccncc3)cnn21 [compound 50] | 9.55e-09 | 103 | 146.8 °C | –
19 | CC(C)c1cc(-c2cnn3c2C(=O)N(c2ccc(C(F)(F)F)cc2)C[C@@H]3C)ccn1 [compound 126, (7S)-3-(2-Isopropyl-4-pyridyl)-7-methyl-5-[4-(trifluoromethyl)phenyl]-6,7-dihydropyrazolo[1,5-a]pyrazin-4-one] | 5.75e-09 | 108 | 70.5 °C | –
20 | Cc1cc(-c2cnn3c2C(=O)N(c2ccc(OC(F)F)cc2)C[C@@H]3C)ccn1 [compound 27] | 1.38e-07 | 104 | 137.1 °C | –
21 | COc1cc(N2C[C@H](C)n3ncc(-c4ccncc4)c3C2=O)ccc1C(F)(F)F [compound 64] | 2.63e-08 | 103 | 273.9 °C | –
22 | C[C@H]1CN(c2ccc(C(F)(F)F)cc2)C(=O)c2c(-c3ccnc(CF)c3)cnn21 [compound 112] | 3.55e-08 | 103 | 154.9 °C | –
23 | CCOc1cc(-c2cnn3c2C(=O)N(c2ccc(C(F)(F)F)cc2)C[C@@H]3C)ccn1 [compound 123] | 6.61e-09 | 107 | 189.5 °C | –
24 | Cc1cc(-c2cnn3c2C(=O)N(c2ccc(Cl)c(C(F)(F)F)c2)C[C@@H]3C)cc(C)n1 [compound 54] | 1.05e-08 | 105 | 205.1 °C | –
25 | CC[C@H]1CN(c2ccc(C(F)(F)F)cc2)C(=O)c2c(-c3ccnc(C)c3)cnn21 [compound 130] | 1.7e-08 | 102 | 134.4 °C | –
26 | CN(C)c1cc(-c2cnn3c2C(=O)N(c2ccc(Cl)c(Cl)c2)CC3CF)ccn1 (single isomer, unassigned) [compound 91] | 5.62e-08 | – | 86 °C | 103
27 | Cc1cc(-c2cnn3c2C(=O)N(c2ccc(Cl)cc2F)C[C@@H]3C)ccn1 [compound 30] | 2.57e-07 | 104 | 78.6 °C | –
28 | C[C@H]1CN(c2ccc(C(F)(F)F)cc2)C(=O)c2c(-c3ccnc(C(F)F)c3)cnn21 [compound 131] | 2.45e-08 | 105 | 134.7 °C | –
29 | Cc1cc(-c2cnn3c2C(=O)N(c2ccc(C(F)(F)F)cc2)C[C@@H]3C)cnc1C [compound 29] | 2.29e-07 | 102 | 140.8 °C | –
30 | CCOc1cc(N2C[C@H](C)n3ncc(-c4cc(C)nc(C)c4)c3C2=O)ccc1C(F)(F)F [compound 49] | 8.71e-09 | 103 | 183.9 °C | –
31 | Cc1cc(-c2cnn3c2C(=O)N(c2ccc(C(F)(F)F)c(F)c2)C[C@@H]3C)cc(C)n1 [compound 61] | 2.82e-08 | 106 | 73.3 °C | –
32 | CC(C)c1cc(-c2cnn3c2C(=O)N(c2ccc(Cl)c(Cl)c2)C[C@@H]3C)ccn1 [compound 124] | 3.02e-09 | 108 | 62.4 °C | –
33 | Cc1cc(-c2cnn3c2C(=O)N(c2ccc(Cl)c(C)c2)C[C@@H]3C)ccn1 [compound 7] | 7.59e-09 | 102 | 126.7 °C | –
34 | CCOc1cc(N2C[C@H](C)n3ncc(-c4ccncc4)c3C2=O)ccc1C(F)(F)F [compound 55] | 1.62e-08 | 104 | 104.2 °C | –
35 | Cc1cc(-c2cnn3c2C(=O)N(c2ccc(C(F)(F)F)c(C#N)c2)C[C@@H]3C)cc(C)n1 [compound 59] | 3.55e-08 | 98 | 214.1 °C | –
36 | COc1cc(F)cc(N2C[C@H](C)n3ncc(-c4ccnc(C)c4)c3C2=O)c1 [compound 85] | 9.55e-07 | 101 | 133 °C | –
37 | C[C@H]1CN(c2ccc(C(F)(F)F)cc2)C(=O)c2c(-c3ccnc(N4CCOCC4)c3)cnn21 [compound 108] | 1.23e-07 | 108 | 128.1 °C | –
38 | Cc1cc(-c2cnn3c2C(=O)N(c2ccc(Cl)c(F)c2)C[C@@H]3C)ccn1 [compound 62] | 3.31e-08 | 105 | 141.7 °C | –
39 | CCOc1cc(N2CC(CO)n3ncc(-c4ccnc(C)c4)c3C2=O)ccc1C(F)(F)F (stereo not drawn) [compound 74] | 2.14e-07 | 100 | 99.1 °C | –
40 | CC[C@@H]1CN(c2ccc(C(F)(F)F)cc2)C(=O)c2c(-c3ccnc(C)c3)cnn21 [compound 129] | 6.92e-07 | 100 | 135.1 °C | –
41 | C[C@H]1CN(c2ccc(S(F)(F)(F)(F)F)cc2)C(=O)c2c(-c3ccncc3)cnn21 [compound 56] | 1.62e-08 | 102 | 199 °C | –
42 | C[C@H]1CN(c2ccc(Cl)c(Cl)c2)C(=O)c2c(-c3ccnc(C#N)c3)cnn21 [compound 109] | 1.86e-08 | 107 | 149.8 °C | –
43 | Cc1cc(-c2cnn3c2C(=O)N(c2ccc(C4(C(F)(F)F)CC4)cc2)C[C@@H]3C)ccn1 [compound 136] | 4.37e-08 | 102 | 126.2 °C | –
44 | Cc1cc(-c2cnn3c2C(=O)N(c2ccc(Cl)cc2)C[C@@H]3C)cc(C)n1 [compound 72] | 1.07e-07 | 103 | 88 °C | –
45 | COCC1CN(c2ccc(Cl)c(Cl)c2)C(=O)c2c(-c3ccnc(C)c3)cnn21 (stereo not drawn) [compound 143] | 2.45e-08 | 104 | > 300 °C | –
